Three compounds from patent publication US7390783B2, “Charged phospholipid compositions and methods for their use” (Ottawa Heart Institute Research Corporation, priority 2000, dated 2008) can be followed below.

Entries after “also recorded” stand apart in the source; their conditions may differ.

The subject of series [1] is HDL, LDL and VLDL. Kind of series: Lipoprotein surface charge after injection of PI or PC vesicles into rabbits (agarose gel electrophoresis). It is filed as in vivo, rabbit. As to conditions: intravenous injection of vesicles, fasted rabbit. As to the method:
(§1) 1-palmitoyl-2-oleoyl-phosphatidylcholine (PC) and 1-palmitoyl-2-oleoyl phosphatidylinositol (PI) vesicles are prepared by drying to completion 40 μmol of each lipid into a 12×75 mm culture tube under N2. The lipids are solubilized in 3 mL of sterile saline comprising 150 mM sodium chloride (pH 7.2) by sonication for 1 minute at constant duty cycle. The vesicles are incubated at 37° C. for 10 minutes and then sonicated at a high output for 4 minutes in 10° C. water bath under N2. In order to determine the rate of clearance of cholesterol from the test animals (rabbits), a radioactive tracer is added to the vesicle preparations prior to injection into the rabbit. 200 μL of 1 μCi/μmL [^3H]-FC is dried into a 12×75 mm culture tube with 40 μmol of PI or POPC. 3 ml of PBS is added to the dried lipids and the mixture is sonicated as described above. This tracer/vesicle preparation is injected and then 5 min later, the PI or PC vesicles were injected and blood is sampled as described below.
(§2) Male New Zealand white rabbits (3.5-4.0 kg) are fasted for 12 hours prior to injection and remain fasted until after data for the final time point is taken. Rabbits have free access to water during this time. A catheter is inserted into the marginal ear vein and blood samples are collected into tubes containing 7.5% (K3) EDTA solution at the desired time points. A pre-injection blood sample is taken and the vesicle solution of either PI (n=4), or PC (n=2) or saline (n=1) is injected into the marginal ear vein. A sample of blood is removed at 10, 30 min, 1, 3, 6 and 24 h after the injection. All blood samples are placed on ice and then centrifuged at 3000 rpm for 15 min at 4° C. to separate the plasma. In order to ensure that lecithin:cholesterol acyl transferase (LCAT) is inhibited in the stored plasma, iodoacetamide (150 mM) is added to plasma samples as taught by Guerin et al. (1994).
Lipoprotein fractions are isolated by sequential ultracentrifugation (VLDL+IDL, d<1.019 g/mL; LDL, d=1.019-1.063 g/mL; and HDL, d=1.063-1.21 g/mL) as known to one of skill in the art, and lipoprotein lipid composition (total cholesterol, free cholesterol (FC), and triglyceride (TG) concentrations) are determined enzymatically using kits from Roche Diagnostic (Laval, PQ). An aliquot of each lipoprotein isolated is dialysed into PBS and its surface charge characteristics were determined by electrophoresis on pre-cast 0.5% agarose gels using the procedure of Sparks and Phillips (1992).
Referring now to FIG. 1, there is illustrated the effect of injection of PI and PC vesicles on the estimated surface potential of HDL, LDL, and VLDL proteins in vivo. […] PC, which is a neutral phospholipid, may also bind to the lipoproteins. However since PC is a neutral phospholipid, no significant change in the migration of the lipoproteins is observed. The increased migratory property of lipoproteins in a gel peaks following injection of PI and returns to normal by about 24 hours. […] Similarly, the VLDL fraction is estimated to have an initial surface potential of about −8.8 mV, which increases to about −11.2 mV after 10 minutes. LDL is estimated to have an initial surface potential of about −3.9 mV, and peaks about 60 min after the PI injection at about −8.0 mV.

Series [2] deals with T1, lecithin:cholesterol acyltransferase (LCAT) (Oryctolagus cuniculus, UniProt P53761).
T1 construct: endogenous LCAT activity is reduced to about 18% that of normal; from tissue; host or cells: plasma of PI- or PC-injected rabbits
T1 sequence (P53761 25-440): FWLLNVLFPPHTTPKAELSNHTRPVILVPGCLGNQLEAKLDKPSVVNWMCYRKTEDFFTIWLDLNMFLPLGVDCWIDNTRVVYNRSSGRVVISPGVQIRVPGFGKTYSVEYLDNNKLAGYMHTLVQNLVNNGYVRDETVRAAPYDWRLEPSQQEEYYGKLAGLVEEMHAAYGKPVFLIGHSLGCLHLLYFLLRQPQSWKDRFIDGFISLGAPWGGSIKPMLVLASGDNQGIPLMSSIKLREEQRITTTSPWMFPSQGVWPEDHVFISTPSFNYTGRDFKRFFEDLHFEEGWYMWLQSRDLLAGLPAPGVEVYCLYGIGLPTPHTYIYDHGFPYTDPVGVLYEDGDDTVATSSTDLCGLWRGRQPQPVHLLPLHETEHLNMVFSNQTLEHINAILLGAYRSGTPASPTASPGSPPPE
In words: Plasma cholesterol esterification by LCAT after injection of PC or PI. Type of series: in vivo, rabbit. The following applies: after injection of vesicles. As to the method:
Male New Zealand white rabbits (3.5-4.0 kg) are fasted for 12 hours prior to injection and remain fasted until after data for the final time point is taken. Rabbits have free access to water during this time. A catheter is inserted into the marginal ear vein and blood samples are collected into tubes containing 7.5% (K3) EDTA solution at the desired time points. A pre-injection blood sample is taken and the vesicle solution of either PI (n=4), or PC (n=2) or saline (n=1) is injected into the marginal ear vein. A sample of blood is removed at 10, 30 min, 1, 3, 6 and 24 h after the injection. All blood samples are placed on ice and then centrifuged at 3000 rpm for 15 min at 4° C. to separate the plasma. In order to ensure that lecithin:cholesterol acyl transferase (LCAT) is inhibited in the stored plasma, iodoacetamide (150 mM) is added to plasma samples as taught by Guerin et al. (1994). The effect of PI on LCAT activity is examined using plasma samples that are not treated with iodoacetamide. 400 μL aliquots of plasma for each time point are incubated for 30 min with 10 μCi of [^3H]-FC on filter paper discs (Dobiasova et al., 1991) at 37° C. and the reaction is terminated with the addition of 2 mL ethanol. Reaction products are extracted in hexane and the amount of [^3H] associated with CE and FC is determined by thin layer chromatography. […] However, endogenous LCAT activity is reduced to about 18% that of normal (PC injected control) after about 10 min post injection of PI. Also, PI injection reduces the fractional rate of cholesterol esterification from about 45% to about 8%, of initial values, per hour. […] To investigate the effect of PI on the production and transport of CE in the plasma, the amount of radioactive CE was measured at each time point (data not shown). […] Rather it appears that PI may modify intravascular cholesterol levels by mobilizing a cellular cholesterol pool.

Series [3] relates to lipoprotein CE and FC in whole blood (red blood cells). Kind of series: Incubation of whole blood with PC or PI vesicles: lipoprotein CE and FC. Type of series: cell-based, human. As to the method:
Referring now to FIG. 4, there is graphically depicted the effect of PI or PC vesicles on lipoprotein CE and FC. Incubation of whole blood with PC vesicles results in a 60% increase in the CE content of the lipoproteins, while FC content is reduced by about 10%. […] Negatively charged phospholipids appeared to promote a reciprocal exchange of CE for FC between red blood cells and the lipoprotein particles. […] It has previously been taught that red blood cells cannot store CE and therefore utilize a membrane-bound CE hydrolase to maintain membrane FC levels. Without wishing to be bound by theory, the results therefore indicate that PI stimulates the degradation of lipoprotein CE.

Series [4] has as its system [^3H]-FC in plasma. In words: Clearance of [^3H]-FC from the blood of a rabbit. It is filed as in vivo. How it is done:
as §1, §2
Referring now to FIG. 5, there is shown the clearance of [^3H]-FC at various times after rabbits are injected with [^3H]-FC and either PI or PC vesicles. […] In comparison, rabbits injected with PC contain approximately 90% of the injected radioactivity after 1 h.

For series [5], the system named is faecal cholesterol output. Kind of series: Faecal cholesterol excretion after PI or PC injection. Type of series: in vivo, rabbit. As to conditions: injection into a rabbit. How it is done: Rabbits are injected with 40 μmol PI or PC vesicles containing 400 μCi […]. Animals are sacrificed at 30 min, and bile is aspirated from the gall bladder. In addition the livers are harvested, homogenized and tissue radioactivity determined. Sterol excretion in the faeces is measured similarly except that faecal cholesterol levels are measured over a time period of 96 hours. Referring now to FIG. 7, there is graphically depicted the effect of PI injection associated with sterol excretion. […] PC injection into a rabbit had no effect on cholesterol excretion, while PI injection enhanced faecal cholesterol output by about 300% at 2 days post injection. The increase in cholesterol output returned to normal by about day 4.

Series [6] has as its system Human plasma. In words: Plasma clotting time (prothrombin time). Type of series: biochemical. The following applies: human plasma incubated with increasing amounts of vesicles, 24 h at 4° C. As to the method:
Referring now to FIG. 11, there is shown the effect of charged lipid on blood coagulation. Human plasma was incubated with various amounts of uncharged vesicles, phosphatidylcholine (PC) or anionic vesicles, phosphatidylinositol (PI), for 24 h at 4° C. Prothrombin time was then measured with the use of a commercially available kit.

The target in series [7] is T2, lipoprotein lipase (Homo sapiens, UniProt P06858).
T2 sequence (P06858 28-475): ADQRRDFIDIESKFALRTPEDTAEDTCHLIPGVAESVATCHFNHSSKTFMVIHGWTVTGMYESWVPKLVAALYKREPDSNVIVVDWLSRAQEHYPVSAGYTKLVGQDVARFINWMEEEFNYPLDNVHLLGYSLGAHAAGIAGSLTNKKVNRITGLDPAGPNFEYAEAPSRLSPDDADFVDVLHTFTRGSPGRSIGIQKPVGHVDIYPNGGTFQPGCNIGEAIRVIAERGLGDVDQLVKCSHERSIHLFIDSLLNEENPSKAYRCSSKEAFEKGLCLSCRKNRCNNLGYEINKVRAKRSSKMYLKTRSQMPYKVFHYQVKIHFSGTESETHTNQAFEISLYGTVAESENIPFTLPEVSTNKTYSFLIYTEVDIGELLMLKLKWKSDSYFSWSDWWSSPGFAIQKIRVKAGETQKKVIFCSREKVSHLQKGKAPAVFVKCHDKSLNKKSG
Kind of series: Lipid hydrolysis by lipoprotein lipase in plasma enriched with charged lipid. It is filed as biochemical. As to conditions: not shown. The text has this: Referring now to FIG. 10, there is shown the effect of lipoprotein charge on hepatic lipase. High density lipoprotein particles were enriched to contain various amounts of anionic or cationic lipids and then characterized as substrates for pure human hepatic lipase. Decreasing the net negative charge on the lipoprotein was associated with a reduction in the lipolytic activity of is hepatic lipase. Lipoprotein charge can also be used to regulate lipoprotein lipase. […] Lipid hydrolysis by hepatic or lipoprotein lipase can therefore be affected by alterations in the charge properties of plasma lipoproteins.

In series [8] the test system is VLDL, LDL and HDL in human plasma. In words: Lipoprotein charge in human plasma incubated with PI or DOTAP vesicles. It is filed as biochemical. As to conditions: 24 h at 4° C.; for Lipoprotein Surface Charge LDL: no lipid 2.5; for Lipoprotein Surface Charge VLDL: no lipid 5.5; for Lipoprotein Surface Charge HDL: no lipid 11.8. How it is done:
Different concentrations as shown below of negatively charged phospholipid (PI) or positively charged phospholipid (DOTAP) were added to human plasma and the surface charge on the lipoproteins was determined. The human plasma was incubated with PI or dioleoyl trimethylammonium-propane (DOTAP) vesicles for 24 h at 4° C. and then electrophoresed on 0.5% agarose. Lipoprotein charge was calculated from electrokinetic analyses.

Series [9] deals with HDL. In words: Oral administration of PS: HDL charge in a human subject. It is filed as in vivo. As to the method: Referring now to FIG. 9, there is graphically depicted the results of oral administration of 300 mg of PS to a human subject. Plasma samples were drawn before, and over a 24 hour period after, administration of PS. HDL charge was determined electrokinetically after electrophoresis of the plasma samples on 0.5% agarose. […] Thus, orally administered negatively charged lipids is absorbed intestinally and alters lipoprotein charge in the blood stream.

With “1-palmitoyl-2-oleoyl-phosphatidylcholine [PC, reference compound]”, the “effect on lipoprotein net negative surface charge / migration of HDL, LDL and VLDL into agarose gel” value in series [1] is given as “negligible effect; also recorded: did not significantly affect migration”. Besides, in series [2], the “effect on LCAT activity / cholesteryl esterification” value was “No appreciable change”. In addition, in series [3], the “increase in CE content of the lipoproteins” value was determined as 60% and the “reduction of lipoprotein FC content” value is “about 10%”. Further, the “[^3H]-FC in plasma, of the initial dose” value in series [4] (after about 1 h) is on record as “approximately 90%”. For the same compound, the “time to clear [^3H]-FC to a comparable baseline level” value in series [4] (rabbit, in vivo) is on record as more than 6 h. Further, in [5], the “effect on cholesterol excretion” value is given as “no effect”. Further, the “effect on plasma clotting time (prothrombin time)” value in [6] was “no significant effect”.

Regarding `CCCCCCCC/C=C\CCCCCCCC(=O)OCC(C[N+](C)(C)C)OC(=O)CCCCCCC/C=C\CCCCCCCC` (centres unmarked) [DOTAP, dioleoyl trimethylammonium propane], the “effect on lipid hydrolysis by lipoprotein lipase” value in series [7] is “inhibited lipid hydrolysis”. The “Lipoprotein Surface Charge LDL” value in [8] (5 mg/ml) is reported as 2.2 -mV; in [8] (10 mg/ml), 1.9 -mV; in [8] (50 mg/ml) it was 1.9 -mV; in [8] (100 mg/ml) it was 1.7 -mV. Moreover, the “Lipoprotein Surface Charge VLDL” value in series [8] (5 mg/ml) is 4.6 -mV; in series [8] (10 mg/ml), 4.6 -mV; in [8] (50 mg/ml) it was 4.1 -mV; in series [8] (100 mg/ml) it was 4.1 -mV. In addition, the “Lipoprotein Surface Charge HDL” value is 11.4 -mV in series [8] (5 mg/ml), 11.2 -mV in series [8] (10 mg/ml), 11.0 -mV in series [8] (50 mg/ml) and 10.9 -mV in series [8] (100 mg/ml).

Consider phosphatidylserine [PS], for which the HDL charge entry in [9] (by 6 hours after 300 mg oral, from −10.9 mV before, 'over' = more negative) is reported as “over −12 mV”; in series [9] (by 24 hours after 300 mg oral) it was −11.4 mV.
